Data: US11083199B2, “Heterocycle derivatives as pesticides” (Bayer Aktiengesellschaft, priority 2017, dated 2021)

Experiments:
Assay type in all cases: in vivo
Ctenocephalides felis [1] = assay: Ctenocephalides felis in vitro contact test with adult cat fleas; settings: application rate 5 μg/cm^2 (=500 g/ha), adult cat fleas dead or moribund after 48 h, read-out: efficacy
Experimental: For the coating of the test tubes, 9 mg of active ingredient are first dissolved in 1 ml of acetone p.a. and then diluted to the desired concentration with acetone p.a. 250 μl of the solution are distributed homogeneously on the inner walls and the base of a 25 ml glass tube by turning and rocking on an orbital shaker (rocking rotation at 30 rpm for 2 h). With 900 ppm of active ingredient solution and internal surface area 44.7 cm^2, given homogeneous distribution, an area-based dose of 5 μg/cm^2 is achieved. After the solvent has evaporated off, the tubes are populated with 5-10 adult cat fleas (Ctenocephalides felis), sealed with a perforated plastic lid and incubated in a horizontal position at room temperature and ambient humidity. After 48 h, efficacy is determined. To this end, the tubes are stood upright and the fleas are knocked to the base of the tube. Fleas which remain motionless at the base or move in an uncoordinated manner are considered to be dead or moribund. […] 100% efficacy means that all the fleas were dead or moribund. 0% efficacy means that no fleas were harmed.

Ctenocephalides felis [2] = assay: Ctenocephalides felis oral test; settings: 48 h, application rate 100 ppm in citrated cattle blood, kill after 2 days, read-out: efficacy
Experimental: Solvent: dimethyl sulfoxide To produce a suitable active ingredient formulation, 10 mg of active ingredient are mixed with 0.5 ml of dimethyl sulfoxide. Dilution with citrated cattle blood gives the desired concentration. About 20 unfed adult cat fleas (Ctenocephalides felis) are placed into a chamber which is closed at the top and bottom with gauze. A metal cylinder whose bottom end is closed with parafilm is placed onto the chamber. The cylinder contains the blood/active ingredient formulation, which can be imbibed by the fleas through the parafilm membrane. After 2 days, the kill in % is determined. 100% means that all of the fleas have been killed; 0% means that none of the fleas have been killed.

Lucilia cuprina = Lucilia cuprina test; settings: 48 h, application rate 100 ppm, L1 larvae, kill after 2 days, read-out: efficacy
Experimental: Solvent: dimethyl sulfoxide To produce a suitable active ingredient formulation, 10 mg of active ingredient are mixed with 0.5 ml of dimethyl sulfoxide, and the concentrate is diluted with water to the desired concentration. About 20 L1 larvae of the Australian sheep blowfly (Lucilia cuprina) are transferred into a test vessel containing minced horsemeat and the active ingredient formulation of the desired concentration. After 2 days, the kill in % is determined. 100% means that all the larvae have been killed; 0% means that no larvae have been killed.

Myzus persicae [3] = assay: Myzus persicae oral test; settings: 120 h, application rate 4 ppm, after 5 days, read-out: efficacy
Experimental: [table] To produce a suitable active ingredient formulation, 1 part by weight of active ingredient is dissolved with the stated parts by weight of solvent and made up to the desired concentration with water. 50 μl of the active ingredient formulation are transferred into microtitre plates and made up to a final volume of 200 μl with 150 μl of IPL41 insect medium (33%+15% sugar). Subsequently, the plates are sealed with parafilm, which a mixed population of green peach aphids (Myzus persicae) within a second microtitre plate is able to puncture and imbibe the solution. After 5 days, the efficacy in % is determined. 100% means that all the aphids have been killed; 0% means that no aphids have been killed.

Myzus persicae [4] = assay: Myzus persicae spray test; settings: foliar, 120 h, application rate 100 g/ha, Chinese cabbage leaf discs, after 5 days, read-out: efficacy
Experimental: (§1) [table] To produce a suitable active ingredient formulation, 1 part by weight of active ingredient is dissolved with the specified parts by weight of solvent and made up to the desired concentration with water containing an emulsifier concentration of 1000 ppm. To produce further test concentrations, the formulation is diluted with emulsifier-containing water. Discs of Chinese cabbage leaves (Brassica pekinensis) infested by all stages of the green peach aphid (Myzus persicae) are sprayed with an active ingredient formulation of the desired concentration. After 5 days, the efficacy in % is determined. 100% means that all the aphids have been killed; 0% means that no aphids have been killed.

Phaedon cochleariae = Phaedon cochleariae spray test; settings: 168 h, larvae, after 7 days, read-out: efficacy; for pest or weed control at 100 g/ha: application rate 100 g/ha
Experimental: as §1, with “pekinensis)” for “pekinensis) infested by all stages of the green peach aphid (Myzus persicae)”, “concentration and, after drying, populated with larvae of the mustard beetle (Phaedon cochleariae).” for “concentration.”, “7” for “5”, “beetle larvae” for “aphids”

Spodoptera frugiperda = Spodoptera frugiperda spray test; settings: foliar, 168 h, application rate 100 g/ha, maize leaf discs, caterpillars, after 7 days, read-out: efficacy
Experimental: [table] To produce a suitable active ingredient formulation, 1 part by weight of active ingredient is dissolved with the specified parts by weight of solvent and made up to the desired concentration with water containing an emulsifier concentration of 1000 ppm. To produce further test concentrations, the formulation is diluted with emulsifier-containing water. Leaf discs of maize (Zea mays) are sprayed with an active ingredient formulation of the desired concentration and, after drying, populated with caterpillars of the fall armyworm (Spodoptera frugiperda). After 7 days, the efficacy in % is determined. 100% means that all the caterpillars have been killed; 0% means that no caterpillar has been killed.

Tetranychus urticae = Tetranychus urticae spray test, OP-resistant; settings: foliar, 144 h, bean leaf discs, after 6 days, read-out: efficacy; for pest or weed control at 20 g/ha: application rate 20 g/ha; for pest or weed control at 100 g/ha: application rate 100 g/ha
Experimental: [table] To produce a suitable active ingredient formulation, 1 part by weight of active ingredient is dissolved with the specified parts by weight of solvent and made up to the desired concentration with water containing an emulsifier concentration of 1000 ppm. To produce further test concentrations, the formulation is diluted with emulsifier-containing water. Discs of bean leaves (Phaseolus vulgaris) infested with all stages of the greenhouse red spider mite (Tetranychus urticae) are sprayed with an active ingredient formulation of the desired concentration. After 6 days, the efficacy in % is determined. 100% means that all the spider mites have been killed; 0% means that no spider mites have been killed.

Compound	pest or weed control at 5 µg/cm2, 500 g/ha (Ctenocephalides felis [1])	pest or weed control at 100 ppm (Ctenocephalides felis [2])	pest or weed control at 100 ppm (Lucilia cuprina)	pest or weed control at 4 ppm (Myzus persicae [3])	pest or weed control at 100 g/ha (Myzus persicae [4])	pest or weed control at 100 g/ha (Phaedon cochleariae)	pest or weed control at 100 g/ha (Spodoptera frugiperda)	pest or weed control at 20 g/ha (Tetranychus urticae)	pest or weed control at 100 g/ha (Tetranychus urticae)	pest or weed control at 500 g/ha (Phaedon cochleariae; application rate 500 g/ha)
CCS(=O)(=O)c1c(-c2nc3cc(C(F)(F)F)ncc3n2C)nc(-c2ccccc2)n1C [Example I-003]	100%	100%	100%	100%	90%					
CCS(=O)(=O)c1c(-c2nc3cc(C(F)(F)F)ncc3n2C)nc(/C=C/C2CC2)n1C [Example I-007, 2-{2-[(E)-2-Cyclopropylvinyl]-5-(ethylsulfonyl)-1-methyl-1H-imidazol-4-yl}-3-methyl-6-(trifluoromethyl)-3H-imidazo[4,5-c]pyridine]	100%	95%	100%	100%	90%	100%	100%			
CCn1c(Cl)nc(-c2nc3cc(C(F)(F)F)ncc3n2C)c1S(=O)(=O)CC [Example I-011]	100%	100%	100%	100%	100%	100%	100%			
CCS(=O)(=O)c1c(-c2nc3cc(C(F)(F)F)ncc3n2C)nc(-c2ccccn2)n1C [Example I-013]	100%	100%	100%	100%	90%	100%				
CCS(=O)(=O)c1c(-c2nc3cc(C(F)(F)F)ncc3n2C)nc(-c2ccc(Cl)cn2)n1C [Example I-015]	100%	100%	100%	100%	90%	100%	100%			
CCS(=O)(=O)c1c(-c2nc3cc(C(F)(F)F)ncc3n2C)nc(-c2cccnc2F)n1C [Example I-020]	100%	100%	100%	100%	100%	100%	83%			
CCS(=O)(=O)c1c(-c2nc3cc(C(F)(F)F)ncc3n2C)nc(-c2ccncc2F)n1C [Example I-022]	100%	95%	100%	100%	100%	100%				
CCS(=O)(=O)c1c(-c2nc3cc(C(F)(F)F)ncc3n2C)nc(-c2cncnc2)n1C [Example I-023]	100%	100%	100%	100%	100%	100%				
CCS(=O)(=O)c1c(-c2nc3cc(C(F)(F)F)ncc3n2C)nc(-c2cnn(C)c2)n1C [Example I-042]				100%	90%	100%		90%		
CCS(=O)(=O)c1c(-c2nc3cc(C(F)(F)F)ncc3n2C)nc(-c2cnn(C3CC3)c2)n1C [Example I-055]		100%	100%	100%	90%	100%			90%	
CCS(=O)(=O)c1c(-c2nc3cc(C(F)(F)F)ncc3n2C)nc(-c2ccc(C(C)(C)C#N)cc2)n1C [Example I-066]				100%	70%				90%	83%
CCS(=O)(=O)c1c(-c2nc3cc(C(F)(F)F)ncc3n2C)nc(-c2ccc(C3(C#N)CC3)c(F)c2)n1C [Example I-070]				100%	100%	100%	83%		100%	
CCS(=O)(=O)c1c(-c2nc3cc(C(F)(F)F)ncc3n2C)nc(-c2ccc(C3(C#N)CC3)cc2C)n1C [Example I-076]					100%	100%	100%		90%	
CCS(=O)(=O)c1c(-c2nc3cc(C(F)(F)F)ncc3n2C)nc(-c2cc(Cl)cc(C3(C#N)CC3)c2)n1C [Example I-077]					90%	100%		90%	100%	
CCS(=O)(=O)c1c(-c2nc3cc(C(F)(F)F)ncc3n2C)nc(-c2ccc(C#N)c(Cl)c2)n1C [Example I-082]				100%	90%	100%	83%	100%	100%	
CCS(=O)(=O)c1c(-c2nc3cc(C(F)(F)F)ncc3n2C)nc(-c2cccc(C3(C#N)CC3)c2)n1C [Example I-087]				100%		100%	100%	90%		
CCS(=O)(=O)c1c(-n2cc3ccc(C(F)(F)F)cc3n2)nc(-c2ccc(Cl)cc2)n1C [Example I-092]			100%	100%		67%	100%		100%	
